Values after ≈ are worked out from the molar mass of the structure shown.
Columns and labels:
C6 rat glioma cell line = assay: MTT assay; assay type: cell-based; settings: for IC50: Rattus norvegicus, C6
Protocol: (§1) The anticancer effects of compounds 1–10 on A549 human lung adenocarcinoma (ATCC® CCL-185™), HepG2 human hepatocellular carcinoma (ATCC® HB-8065™), and C6 rat glioma (ATCC® CCL107™) cell lines were assessed using 3-(4,5-Dimethylthiazol-2-yl)-2,5-diphenyltetrazolium bromide (MTT) assay, whereas the selectivity of compounds 1–10 was tested using NIH/3T3 mouse embryonic fibroblast cell line (ATCC® CRL-1658™, London, UK). All cell lines were incubated according to the supplier’s recommendations. The cells were seeded as 1 × 10^4 cells into each well of the 96-well plates. MTT assay was performed as previously described. The compounds were tested between the concentrations equal to 1 mM and 0.000316 mM (1.0, 0.316, 0.10, 0.0316, 0.01, 0.00316, 0.001, 0.000316 mM). Stock solutions of compounds were prepared in dimethyl sulfoxide (DMSO) and further dilutions were made with fresh culture medium. The final DMSO concentration was under 1% [34] and cisplatin was used as a positive control. Inhibition % was calculated for each concentration according to the formula below, and IC50 values were determined by plotting a dose–response curve of inhibition % versus compound concentrations tested. All experiments were performed in quadruplicate.Inhibition % = 100 − [(ODtest compound − ODblank/ODsolvent control − ODblank)] × 100(1)

[1] = test system: HepG2 human hepatocellular carcinoma cell line; assay: MTT assay; assay type: cell-based; settings: for IC50: Homo sapiens, HepG2
Protocol: as §1

[2] = test system: A549 human lung adenocarcinoma cell line; assay: MTT assay; assay type: cell-based; settings: for IC50: Homo sapiens, A549
Protocol: as §1

[3] = test system: NIH/3T3 mouse embryonic fibroblast cell line; assay: MTT assay; assay type: cell-based; settings: for IC50: Mus musculus, NIH3T3, healthy cells for selectivity
Protocol: as §1

C. krusei (ATCC 6258) = assay: Microdilution susceptibility assay (MIC); assay type: cell-based, Candida krusei; settings: Pichia kudriavzevii, ATCC6258
Protocol: (§2) Compounds 1–10 were screened for their antimicrobial activity against gram-negative bacteria, gram-positive bacteria, and yeasts, listed in Table 1. Bacteria were grown in Mueller-Hinton Broth and yeasts were grown in Sabouraud Dextrose Broth (SDB) during experiments. Overnight cultures were prepared routinely by subculturing of stock culture onto Mueller-Hinton Agar for bacteria and Sabouraud Dextrose Agar for yeasts.
(§3) Microdilution susceptibility assay was used for the determination of antibacterial and anticandidal efficacy of compounds 1–10. Chloramphenicol and ketoconazole were used as positive controls for bacteria and yeasts, respectively. All experiments were designed according to the Clinical Laboratory Standards Institute (CLSI). All chemicals were dissolved in dimethyl sulfoxide (DMSO) to obtain stock solution (10 mg/mL). Two-fold serial dilutions (800, 400, 200...0.78 µg/mL) of the compounds were prepared from stock solutions with dH2O. 100 µL of each solution was transferred to 96-well microtiter plates and 100 µL of 10^6 CFU/mL of bacteria and 2 × 10^3 of CFU/mL yeast were added to related wells. As negative controls, wells including microorganisms without agents and wells including agents without microorganisms were used. The plates were kept at 35 °C for 18–20 h and the growth was determined with resazurin (20 mg/mL). Assays were carried out in triplicate.

C. glabrata = assay: ATP luminescence microbial cell viability assay; assay type: cell-based, Candida glabrata; settings: 24 h treatment, result in words
Protocol: (§4) A model from BioTek Instruments Inc. combined with a BacTiter-Glo^TM Microbial Cell Viability assay (Promega Corp., Madison, WI, USA) was used to provide a sensitive and rapid method for determining the number of viable microbial cells in culture based on quantitation of the ATP present. […] After incubation, cultures were added into the wells (final concentration of bacteria was 5 × 10^5 CFU/mL and 2.5 × 10^6 CFU/mL for yeasts). After adding the BacTiter reagent, incubation time for bacteria and yeasts was 5 min and 15 min, respectively.
(§5) The assay generates a “glow-type” luminescent signal, produced by the luciferase reaction. Briefly, after chemicals and strains were incubated for 24 h, 100 µL of the culture was taken from each well and mixed with the same volume of the BacTiter-Glo™ reagent in a white, opaque-walled microtiter plate. Control wells containing medium without cells were prepared to obtain a value for background luminescence. Cells without compound were used as an ATP-positive control. The microplates were further incubated under agitation for 7 min. Bioluminescence was recorded in a multi-detection microplate reader (BioTek Synergy 2 Multi-Mode Microplate Reader, BioTek Instruments, Winooski, VT, USA). In Figure 3, results were given as percentage of untreated control, which is set at 100%. Experiments were performed in triplicate and each sample was measured in four replicates.

[4] = test system: C. parapsilosis (ATCC 22019); assay: Microdilution susceptibility assay (MIC); assay type: cell-based, Candida parapsilosis; settings: Lodderomyces parapsilosis, ATCC22019
Protocol: as §2, §3

E. faecalis (ATCC 29212) = assay: Microdilution susceptibility assay (MIC); assay type: cell-based; settings: Enterococcus faecalis, ATCC29212
Protocol: as §2, §3

[5] = test system: K. pneumoniae (ATCC 700603); assay: Microdilution susceptibility assay (MIC); assay type: cell-based; settings: Klebsiella pneumoniae, ATCC700603
Protocol: as §2, §3

E. coli (ATCC 25922) = assay: Microdilution susceptibility assay (MIC); assay type: cell-based; settings: Escherichia coli, ATCC25922
Protocol: as §2, §3

E. faecalis (ATCC 51299) [6] = assay: Microdilution susceptibility assay (MIC); assay type: cell-based; settings: Enterococcus faecalis, ATCC51299
Protocol: as §2, §3

C. albicans (ATCC 90028) = assay: Microdilution susceptibility assay (MIC); assay type: cell-based; settings: Candida albicans, ATCC90028
Protocol: as §2, §3

S. aureus (ATCC 25923) = assay: Microdilution susceptibility assay (MIC); assay type: cell-based; settings: Staphylococcus aureus, ATCC25923
Protocol: as §2, §3

C. glabrata (ATCC 90030) = assay: Microdilution susceptibility assay (MIC); assay type: cell-based, Candida glabrata; settings: Nakaseomyces glabratus, ATCC90030
Protocol: as §2, §3

E. faecalis (ATCC 51299) [7] = assay: ATP luminescence microbial cell viability assay; assay type: cell-based, Enterococcus faecalis; settings: 24 h treatment, result in words
Protocol: as §4, §5

| SMILES | IC50 C6 Cell Line (C6 rat glioma cell line) [µg/mL] | IC50 HepG2 Cell Line [1] [µg/mL] | IC50 A549 Cell Line [2] [µg/mL] | IC50 NIH/3T3 Cell Line ([3]; healthy cells for selectivity) [µg/mL] | IC50 (C6 rat glioma cell line) [µg/mL] | IC50 [1] [µg/mL] | IC50 [2] [µg/mL] | IC50 [3] [µg/mL] | MIC (C. krusei (ATCC 6258)) [µg/mL] | antifungal activity in ATP bioluminescence assay (C. glabrata) | MIC [4] [µg/mL] | melting point [°C] | MIC (E. faecalis (ATCC 29212)) [µg/mL] | MIC [5] [µg/mL] | MIC (E. coli (ATCC 25922)) [µg/mL] | MIC (E. faecalis (ATCC 51299) [6]) [µg/mL] | MIC (C. albicans (ATCC 90028)) [µg/mL] | MIC (S. aureus (ATCC 25923)) [µg/mL] | MIC (C. glabrata (ATCC 90030)) [µg/mL] | antimicrobial activity in ATP bioluminescence assay (E. faecalis (ATCC 51299) [7]) |
| --- | --- | --- | --- | --- | --- | --- | --- | --- | --- | --- | --- | --- | --- | --- | --- | --- | --- | --- | --- | --- |
| N.N.[Cl][Pt][Cl] [Cisplatin, reference compound] | 46 | 38 | 19 | >300 | – | – | – | – | – | – | – | – | – | – | – | – | – | – | – | – |
| Cn1cccc1C(=O)C=Cc1ccc(-c2ccc(Cl)cc2[N+](=O)[O-])o1 [Compound 4, 1-(1-Methyl-1H-pyrrol-2-yl)-3-(5-(2-nitro-4-chlorophenyl)furan-2-yl)prop-2-en-1-one] | – | – | – | – | > 357 | 100 (≈ 280 µM) | > 357 | 36 (≈ 101 µM) | 200 (≈ 561 µM) | antifungal activity close to ketoconazole | 50 (≈ 140 µM) | 133 to 134 | 200 (≈ 561 µM) | 100 (≈ 280 µM) | 100 (≈ 280 µM) | 200 (≈ 561 µM) | 200 (≈ 561 µM) | 100 (≈ 280 µM) | 100 (≈ 280 µM) | – |
| Cn1cccc1C(=O)C=Cc1ccc(-c2ccc(Cl)c(Cl)c2)o1 [Compound 10, 1-(1-Methyl-1H-pyrrol-2-yl)-3-(5-(3,4-dichlorophenyl)furan-2-yl)prop-2-en-1-one] | – | – | – | – | 100 (≈ 289 µM) | 100 (≈ 289 µM) | 346 (≈ 999 µM) | 148 (≈ 427 µM) | 200 (≈ 578 µM) | – | 100 (≈ 289 µM) | 132 to 133 | 400 (≈ 1160 µM) | 200 (≈ 578 µM) | 100 (≈ 289 µM) | 100 (≈ 289 µM) | 100 (≈ 289 µM) | 200 (≈ 578 µM) | 200 (≈ 578 µM) | antimicrobial activity close to chloramphenicol |
| Cn1cccc1C(=O)C=Cc1ccc(-c2cccc(Cl)c2)o1 [Compound 6, 1-(1-Methyl-1H-pyrrol-2-yl)-3-(5-(3-chlorophenyl)furan-2-yl)prop-2-en-1-one] | – | – | – | – | 103 (≈ 330 µM) | 98 (≈ 314 µM) | 98 (≈ 314 µM) | 38 (≈ 122 µM) | 200 (≈ 642 µM) | – | 100 (≈ 321 µM) | 121 to 122 | 200 (≈ 642 µM) | 200 (≈ 642 µM) | 100 (≈ 321 µM) | 200 (≈ 642 µM) | 200 (≈ 642 µM) | 200 (≈ 642 µM) | 200 (≈ 642 µM) | – |
| Cn1cccc1C(=O)C=Cc1ccc(-c2ccc(Cl)cc2Cl)o1 [Compound 8, 1-(1-Methyl-1H-pyrrol-2-yl)-3-(5-(2,4-dichlorophenyl)furan-2-yl)prop-2-en-1-one] | – | – | – | – | 90 (≈ 260 µM) | 106 (≈ 306 µM) | 225 (≈ 650 µM) | 277 (≈ 800 µM) | 50 (≈ 144 µM) | antifungal activity close to ketoconazole | 100 (≈ 289 µM) | 98 to 99 | 200 (≈ 578 µM) | 200 (≈ 578 µM) | 100 (≈ 289 µM) | 400 (≈ 1160 µM) | 200 (≈ 578 µM) | 400 (≈ 1160 µM) | 100 (≈ 289 µM) | – |

From PMC6149822, “A New Series of Pyrrole-Based Chalcones: Synthesis and Evaluation of Antimicrobial Activity, Cytotoxicity, and Genotoxicity” (Molecules : A Journal of Synthetic Chemistry and Natural …, 2017)
